ChEMBL document CHEMBL1641386, “Lagunamides A and B: cytotoxic and antimalarial cyclodepsipeptides from the marine cyanobacterium Lyngbya majuscula” (J Nat Prod, 2010)

Assays:
Plasmodium falciparum = assay: Antimalarial activity against drug-sensitive Plasmodium falciparum NF54 infected in human erythrocytes after 48 hrs by Liquid scintillation counter; format: functional, organism-based; conditions: NF54, 48 h
Pseudomonas aeruginosa = assay: Anti-Swarming activity against Pseudomonas aeruginosa PA01 at 100 ppm after 72 hrs; format: functional
P388 = assay: Cytotoxicity against mouse P388 cells after 72 hrs by MTT assay; format: functional, cell-based; conditions: P388, 72 h

CC[C@@H](C)[C@@H]1NC(=O)CN(C)C(=O)[C@@H](Cc2ccccc2)N(C)C(=O)[C@H](C)NC(=O)[C@@H]([C@@H](C)CC)OC(=O)/C(C)=C/C[C@H](O)[C@H](C)[C@H]([C@@H](C)CC)OC(=O)[C@H](C)N(C)C1=O [LAGUNAMIDE A]
IC50 (Plasmodium falciparum): 190 nM
Activity (Pseudomonas aeruginosa): 62%
IC50 (P388): 6.4 nM

C/C=C(\C)[C@@H]1OC(=O)[C@H](C)N(C)C(=O)[C@H]([C@H](C)CC)NC(=O)CN(C)C(=O)[C@@H](Cc2ccccc2)N(C)C(=O)[C@H](C)NC(=O)[C@@H]([C@@H](C)CC)OC(=O)/C(C)=C/C[C@H](O)[C@@H]1C [LAGUNAMIDE B]
IC50 (Plasmodium falciparum): 910 nM
Activity (Pseudomonas aeruginosa): 56%
IC50 (P388): 20.5 nM
